Laboratory results taken from patent publication US20150105252A1, “SUBSTITUTED PYRAZOLES AS HERBICIDES” (E I DU PONT DE NEMOURS AND COMPANY, priority 2013, published 2015).

What was measured:
chickweed = assay: Test C postemergence; assay type: in vivo, Stellaria media; conditions: for Plant response rating (scale of 0 to 100 where 0 is no effect and 100 is complete control), Chickweed: Postemergence, 31 g ai/ha, visually evaluated after 13 to 15 days; for Chickweed plant response rating / Plant response rating, Chickweed: postemergence; for Chickweed plant response rating: 62 g ai/ha, scale 0 to 100
In short: (§1)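 Seeds were sown in a loam soil–sand blend and sprayed preemergence with compounds formulated in a non-phytotoxic solvent mixture containing surfactant. Postemergence plants, grown in peat/vermiculite medium to 2–18 cm (1- to 4-leaf stage), received the same formulation. After 13 to 15 days in a greenhouse, injury was rated visually against controls (0 = no effect, 100 = complete control).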

morningglory [1] = assay: Test A postemergence; assay type: in vivo, Ipomoea spp.
In short: (§2)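 Scoring was visual, on a scale where 100 means complete control and 0 means no effect, comparing treated with untreated plants around 10 days post-application. Compounds in surfactant-containing non-phytotoxic solvent were sprayed onto soil preemergence or onto one- to two-leaf seedlings (2–10 cm) postemergence.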

crabgrass, large [2] = assay: Test A preemergence; assay type: in vivo, Digitaria sanguinalis; conditions: preemergence; for Crabgrass, Large plant response rating (0 to 100 scale): 125 g ai/ha, visual injury approx. 10 days after treatment; for Crabgrass, Large plant response rating: 500 g ai/ha, visual injury after approx. 10 days, 0 to 100 scale (0 no effect, 100 complete control)
In short: as §2

crabgrass, large [3] = assay: Test C preemergence; assay type: in vivo, Digitaria sanguinalis; conditions: preemergence; for Plant response rating, Crabgrass, Large: 125 g ai/ha, scale 0 to 100, 0 = no effect, 100 = complete control
In short: as §1

ducksalad = assay: Test B flood; assay type: in vivo, Heteranthera limosa; conditions: 250 g ai/ha, visual rating on 0 to 100 scale (0 no effect, 100 complete control), 13 to 15 days
In short: (§3)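 Response scored visually, 0–100 relative to controls, 13–15 days after the compound was applied into paddy water; plants were at the 2-leaf stage in pots kept flooded to 3 cm.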

rice = assay: Test B flood; assay type: in vivo, Oryza sativa; conditions: 250 g ai/ha, visual rating on 0 to 100 scale (0 no effect, 100 complete control), 13 to 15 days
In short: as §3

velvetleaf = assay: Test C preemergence; assay type: in vivo, Abutilon theophrasti; conditions: preemergence; for Plant response rating, Velvetleaf: 125 g ai/ha, scale 0 to 100, 0 = no effect, 100 = complete control
In short: as §1

nutsedge, yellow [4] = assay: Test C preemergence; assay type: in vivo, Cyperus esculentus; conditions: preemergence; for Plant response rating, Nutsedge, Yellow: 125 g ai/ha, scale 0 to 100, 0 = no effect, 100 = complete control
In short: as §1

nutsedge, yellow [5] = assay: Test C postemergence; assay type: in vivo, Cyperus esculentus; conditions: for Plant response rating (scale of 0 to 100 where 0 is no effect and 100 is complete control), Nutsedge, Yellow: Postemergence, 31 g ai/ha, visually evaluated after 13 to 15 days; for Nutsedge, Yellow plant response rating / Plant response rating, Nutsedge, Yellow: postemergence; for Nutsedge, Yellow plant response rating: 62 g ai/ha, scale 0 to 100
In short: as §1

morningglory [6] = assay: Test C preemergence; assay type: in vivo, Ipomoea coccinea; conditions: preemergence; for Plant response rating, Morningglory: 125 g ai/ha, scale 0 to 100, 0 = no effect, 100 = complete control
In short: as §1

barnyardgrass [7] = assay: Test C preemergence; assay type: in vivo, Echinochloa crus-galli; conditions: preemergence; for Plant response rating, Barnyardgrass: 125 g ai/ha, scale 0 to 100, 0 = no effect, 100 = complete control
In short: as §1

oilseed rape = assay: Test C preemergence; assay type: in vivo, Brassica napus; conditions: preemergence; for Plant response rating, Oilseed Rape: 125 g ai/ha, scale 0 to 100, 0 = no effect, 100 = complete control
In short: as §1

barnyardgrass [8] = assay: Test A postemergence; assay type: in vivo, Echinochloa crus-galli
In short: as §2

[9] = 250 g ai/ha, scale 0 to 100 (0 no effect, 100 complete control)
[10] = 125 g ai/ha, scale 0 to 100, 0 no effect, 100 complete control
[11] = Postemergence, 500 g ai/ha, 0 to 100 scale (0 no effect, 100 complete control)
[12] = postemergence, 125 g ai/ha, about 10 days, visual rating on 0 to 100 scale (0 no effect, 100 complete control)
[13] = 31 g ai/ha, visual rating, scale 0 to 100 (0 no effect, 100 complete control), 13 to 15 days
[14] = 62 g ai/ha, scale 0 to 100 (0 no effect, 100 complete control), 13 to 15 days
[15] = 250 g ai/ha, scale 0 to 100, 0 is no effect, 100 is complete control

| SMILES | Plant response rating (scale of 0 to 100 where 0 is no effect and 100 is complete control), Chickweed (chickweed) | Chickweed plant response rating (chickweed) | Plant response rating, Chickweed (chickweed; [9]) | Plant response rating, Chickweed (chickweed; [10]) | Morningglory plant response rating (morningglory [1]; [11]) | Morningglory plant response rating (morningglory [1]; [12]) | Crabgrass, Large plant response rating (0 to 100 scale) (crabgrass, large [2]) | Crabgrass, Large plant response rating (crabgrass, large [2]) | Crabgrass, Large plant response rating (crabgrass, large [3]; [13]) | Crabgrass, Large plant response rating (crabgrass, large [3]; [14]) | Plant response rating, Crabgrass, Large (crabgrass, large [3]; 13 to 15 days) | Crabgrass, Large plant response rating (crabgrass, large [3]; [15]) | Plant response rating, Ducksalad (ducksalad) | Plant response rating, Rice (rice) | Velvetleaf plant response rating (velvetleaf; [13]) | Velvetleaf plant response rating (velvetleaf; [14]) | Plant response rating, Velvetleaf (velvetleaf; 13 to 15 days) | Velvetleaf plant response rating (velvetleaf; [15]) | Nutsedge, Yellow plant response rating (nutsedge, yellow [4]; [13]) | Nutsedge, Yellow plant response rating (nutsedge, yellow [4]; [14]) | also measured |
| --- | --- | --- | --- | --- | --- | --- | --- | --- | --- | --- | --- | --- | --- | --- | --- | --- | --- | --- | --- | --- | --- |
| O=C(NC1CC1)c1cc(CCCl)n(Cc2ccnc(C(F)(F)F)c2)n1 [Compound 144] | 70 | 65 | 90 | 80 | 90 | 80 | 100 | 100 | 100 | 100 | 100 | 100 | 95 | 0 | 15 | 75 | 100 | 100 | 0 | 45 | Plant response rating, Nutsedge, Yellow (nutsedge, yellow [4]; 13 to 15 days): 65; Nutsedge, Yellow plant response rating (nutsedge, yellow [4]; [15]): 90; Plant response rating (scale of 0 to 100 where 0 is no effect and 100 is complete control), Nutsedge, Yellow (nutsedge, yellow [5]): 10; Nutsedge, Yellow plant response rating (nutsedge, yellow [5]): 5; Plant response rating, Nutsedge, Yellow (nutsedge, yellow [5]; [9]): 35; Plant response rating, Nutsedge, Yellow (nutsedge, yellow [5]; [10]): 5; Morningglory plant response rating (morningglory [6]; [13]): 60; Morningglory plant response rating (morningglory [6]; [14]): 100; Plant response rating, Morningglory (morningglory [6]; 13 to 15 days): 100; Morningglory plant response rating (morningglory [6]; [15]): 100; Barnyardgrass plant response rating (barnyardgrass [7]; [13]): 75; Barnyardgrass plant response rating (barnyardgrass [7]; [14]): 98; Plant response rating, Barnyardgrass (barnyardgrass [7]; 13 to 15 days): 100; Barnyardgrass plant response rating (barnyardgrass [7]; [15]): 100; Oilseed Rape plant response rating (oilseed rape; [13]): 80; Oilseed Rape plant response rating (oilseed rape; [14]): 95; Plant response rating, Oilseed Rape (oilseed rape; 13 to 15 days): 100; Oilseed Rape plant response rating (oilseed rape; [15]): 100; Barnyardgrass plant response rating (barnyardgrass [8]; [11]): 90; Barnyardgrass plant response rating (barnyardgrass [8]; [12]): 70 |
| CCOc1cc(C(=O)NOC(C)C)nn1Cc1ccnc(C(F)(F)F)c1 [Compound 153] | 50 | 70 | 80 | 70 | 100 | 100 | 100 | 100 | 85 | 98 | 100 | 100 | 90 | 40 | 10 | 60 | 90 | 100 | 20 | 75 | Plant response rating, Nutsedge, Yellow (nutsedge, yellow [4]; 13 to 15 days): 85; Nutsedge, Yellow plant response rating (nutsedge, yellow [4]; [15]): 95; Plant response rating (scale of 0 to 100 where 0 is no effect and 100 is complete control), Nutsedge, Yellow (nutsedge, yellow [5]): 5; Nutsedge, Yellow plant response rating (nutsedge, yellow [5]): 5; Plant response rating, Nutsedge, Yellow (nutsedge, yellow [5]; [9]): 15; Plant response rating, Nutsedge, Yellow (nutsedge, yellow [5]; [10]): 20; Morningglory plant response rating (morningglory [6]; [13]): 30; Morningglory plant response rating (morningglory [6]; [14]): 80; Plant response rating, Morningglory (morningglory [6]; 13 to 15 days): 100; Morningglory plant response rating (morningglory [6]; [15]): 100; Barnyardgrass plant response rating (barnyardgrass [7]; [13]): 15; Barnyardgrass plant response rating (barnyardgrass [7]; [14]): 95; Plant response rating, Barnyardgrass (barnyardgrass [7]; 13 to 15 days): 100; Barnyardgrass plant response rating (barnyardgrass [7]; [15]): 100; Oilseed Rape plant response rating (oilseed rape; [13]): 60; Oilseed Rape plant response rating (oilseed rape; [14]): 95; Plant response rating, Oilseed Rape (oilseed rape; 13 to 15 days): 95; Oilseed Rape plant response rating (oilseed rape; [15]): 95; Barnyardgrass plant response rating (barnyardgrass [8]; [11]): 100; Barnyardgrass plant response rating (barnyardgrass [8]; [12]): 100 |
